# Laboratory results: paper PMC5263201, “GABAA receptor occupancy by subtype selective GABAAα2,3 modulators: PET studies in humans” (Psychopharmacology, 2016)
# pEC50, pKi: −log10 of the molar value. “And” between values parts separate entries of the source, which are not always exact repeats. Identical values can stand only once. Like-named read-outs stand apart in the source and are kept apart here.
# What was measured:
# [1] = test system: GABAA receptors (benzodiazepine binding site); assay: PET with [11C]flumazenil (HRRT): GABAA receptor occupancy; assay type: in vivo, human; details: for Occupancy (%) OC: occipital cortex; for Occupancy (%) OC / Occupancy (%) AMG / Occupancy (%) CER / Occupancy (%) PUT: 1 h after drug administration; for Occupancy (%) AMG: amygdala; for Occupancy (%) CER: cerebellum; for Occupancy (%) PUT: putamen
# Method: Two separate open-label phase I PET studies were conducted in 2008–2009.
# The initial study design included two sequential panels, with two subjects in each. The first panel was intended to obtain initial receptor occupancy values, to be used for dose selection in the second panel. […] The studies followed an adaptive design, i.e., doses and PET measurements were adjusted depending on the results of preceding measurements. […] To optimize quantification of the relationship between AZ6280 exposure and receptor occupancy, the number of subjects with the highest 40 mg dose was increased (Fig. 1).
# The head of the subject was fixed using individual plaster helmet. A sterile physiological phosphate buffer (pH 7.4) solution containing [^11C]flumazenil was injected intravenously as a bolus during 2 s, immediately followed by flush with 10 ml saline. The injected radioactivity for [^11C]flumazenil was in the range of 330–350 MBq, (340 (9) MBq, mean, SD) in the study 1 and in the range of 317–363 MBq (335 (16) MBq) in the study 2. The specific radioactivity of the radioligand at time of injection ranged from 310 to 1465 GBq/μmol (730 (414) GBq/μmol, mean, SD) and from 464 to 1879 GBq/μmol (977 (424) GBq/μmol, mean, SD), for study 1 and study 2, respectively.
# PET examinations were performed over 63 min (HRRT; Siemens/CTI). List mode data were reconstructed using the ordinary Poisson 3D ordered subset estimation maximization algorithm, with 10 iterations and 16 subsets including modeling of the point spread function (Varrone et al. [2009]) into a 4D PET image containing 33 consecutive time frames (9 × 10 s, 2 × 15 s, 3 × 20 s, 4 × 30 s, 4 × 60 s, 4 × 180 s, 7 × 360 s) with a 3D array of 256 × 256 × 207 voxels having a size of 1.22 × 1.22 × 1.22 mm.
# The anatomical brain regions were delineated manually on the MR images using in-house image analysis software. The regions included cortical and striatal subregions, thalamus, cerebellum, limbic regions, pons, and whole brain. The following four regions were selected in the final analysis: The occipital cortex and cerebellum were chosen because of the highest GABAA receptor binding by [^11C]flumazenil and good imaging statistics and preferential distribution of α1/α2 receptor subtypes; the amygdala was chosen because of its role in the brain circuits involved in anxiety and putamen for preferential α1/α2/α3 versus α5 receptor subtypes (Lingford-Hughes et al. [2002]; Fatemi et al. [2013]; Waldvogel and Faull [2015]). For the pons, the ROI was drawn on horizontal projection on the six central slices. […] The concentration of radioactivity in each ROI, calculated for each sequential time frame and corrected for ^11C decay, was plotted versus time (TACs).
# An index of neuronal GABAA receptor density or binding potential (BPND) was calculated using the simplified reference tissue model (Lammertsma and Hume [1996]) and pons as a reference region. The calculated receptor occupancy (%) was then correlated to drug exposure according to the following equation:1 Occupancy=Occmax×Cav,PET/Ki,plasma+Cav,PET
# where Occmax is the maximal occupancy induced by drug, C av,PET is the total drug plasma concentration, and K i,plasma is the inhibition constant corresponding to the drug plasma concentration required for half-maximum receptor occupancy. Non-linear least squares curve fitting of the relationship between drug plasma concentration and receptor occupancy was performed using Matlab R2007b (http://de.mathworks.com). Regional data were fitted simultaneously to obtain a single estimate of K i,plasma and regionally different estimates of Occmax. Best fit estimate and confidence interval (95% CI) were obtained on the logarithmic scale.
# [2] = Plasma pharmacokinetics after single oral doses in the PET studies; assay type: in vivo, human; details: for C av,PET: average plasma concentration at time of PET
# Method: Venous blood samples for determination of drug plasma concentrations were collected at approximately 15 min before [^11C]flumazenil injection and at 15 and 30 min and 3, 4, 6, 8, 10, 12, 16, 24, 36, and 48 h after drug administration, including three samples during PET measurement, at 1, 1.30, and 2 h after drug administration.
# Calculations of the pharmacokinetic parameters included the maximum plasma concentration (C max), the time to the maximum plasma concentration (T max), and the average drug plasma concentration during the PET measurement (C av,PET) (division of the partial area corresponding to the start and end times of PET assessment, AUCPET, by the duration of the PET measurement). The pharmacokinetic calculations were performed using non-compartmental analysis using WinNonlin™, Pharsight Corporation.
# [3] = set-up: method as in Chen et al. 2014, 2015; details: neurophysiological test battery; ref Chen et al. 2014, 2015; cited from earlier work
# [4] = test system: approximately 160 different ligand binding assays; assay: Battery of approximately 160 different ligand binding assays at 10 μM; details: active = ≥50% inhibition with an IC50 <1µM
# [5] = Brain exposure in animals; assay type: in vivo
# human MT1 receptor = human MT1 receptor (Homo sapiens, UniProt P48039); assay: MT1 receptor GTPγS studies; assay type: biochemical
# [6] = cited from earlier work
# [7] = Safety and tolerability in the PET studies; assay type: in vivo, human
# Source text: Safety and tolerability assessments included records of adverse events, vital signs (blood pressure, heart rate), Allen’s test, ECG, clinical chemistry, hematology assessments, and urinalysis.
# [8] = AZD6280 5 to 40 mg single oral doses
# Chain of human MT1 receptor (P48039 whole entry): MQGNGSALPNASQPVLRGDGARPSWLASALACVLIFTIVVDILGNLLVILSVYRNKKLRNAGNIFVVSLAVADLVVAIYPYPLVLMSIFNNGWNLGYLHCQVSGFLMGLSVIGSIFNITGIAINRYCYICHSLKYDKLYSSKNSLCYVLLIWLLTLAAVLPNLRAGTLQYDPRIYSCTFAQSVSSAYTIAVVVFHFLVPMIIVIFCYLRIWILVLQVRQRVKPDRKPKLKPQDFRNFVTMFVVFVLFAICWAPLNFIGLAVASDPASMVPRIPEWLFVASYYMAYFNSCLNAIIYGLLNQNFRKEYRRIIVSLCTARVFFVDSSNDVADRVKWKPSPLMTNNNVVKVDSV
smiles,measurement,setting,value
CCCNC(=O)c1nnc2c(-c3cc(OC)ccc3OC)cccc2c1N [AZD6280],receptor occupancy at the maximum tolerated dose,"[1]; 40 mg AZD6280, cortex and cerebellum",over 60%
same,Occupancy (%) OC,[1]; AZD6280 single oral dose 5 mg,11% and 7%
same,Occupancy (%) AMG,[1]; AZD6280 single oral dose 12 mg,−8%
same,Occupancy (%) CER,[1]; AZD6280 single oral dose 12 mg,25%
same,Occupancy (%) OC,[1]; AZD6280 single oral dose 12 mg,17%
same,Occupancy (%) PUT,[1]; AZD6280 single oral dose 12 mg,0%
same,Occupancy (%) AMG,[1]; AZD6280 single oral dose 20 mg,20%
same,Occupancy (%) CER,[1]; AZD6280 single oral dose 20 mg,65%
same,Occupancy (%) OC,[1]; AZD6280 single oral dose 20 mg,60%
same,Occupancy (%) PUT,[1]; AZD6280 single oral dose 20 mg,32%
same,Occupancy (%) AMG,[1]; AZD6280 single oral dose 30 mg,9% and 5%
same,Occupancy (%) CER,[1]; AZD6280 single oral dose 30 mg,50% and 59%
same,Occupancy (%) OC,[1]; AZD6280 single oral dose 30 mg,39% and 43%
same,Occupancy (%) PUT,[1]; AZD6280 single oral dose 30 mg,16% and 14%
same,Occupancy (%) CER,[1]; AZD6280 single oral dose 40 mg,69% and 61% and 62% and 60%
same,Occupancy (%) OC,[1]; AZD6280 single oral dose 40 mg,50% and 52% and 62% and 53% and 36%
same,Receptor occupancy (RO),"[1]; at 40mg, MTD, present study",60-70%
same,pKi,"[1]; read-out: K i,plasma (plasma concentration required for 50% receptor occupancy), hyperbolic fit of occupancy vs C av,PET, regional data fitted simultaneously",6.36
same,T max,"[2]; AZD6280 single oral dose 5 mg, individual subjects",108 min
same,Cmax,"[2]; AZD6280 single oral dose 5 mg, individual subjects, read-out: C max",179 nM and 77.2 nM
same,"C av,PET",[2]; AZD6280 single oral dose 12 mg,204.68 nM
same,"C av,PET",[2]; AZD6280 single oral dose 20 mg,592.22 nM
same,"C av,PET",[2]; AZD6280 single oral dose 30 mg,513.07 nM and 676.82 nM
same,T max,"[2]; AZD6280 single oral dose 30 mg, individual subjects",30 min
same,Cmax,"[2]; AZD6280 single oral dose 30 mg, individual subjects, read-out: C max",731 nM
same,T max,"[2]; AZD6280 single oral dose 40 mg, individual subjects",30 min and 36 min
same,Cmax,"[2]; AZD6280 single oral dose 40 mg, individual subjects, read-out: C max",1250 nM and 1500 nM and 439 nM and 1510 nM
same,Cmax,"[2]; human, plasma, oral, range over all doses and subjects, read-out: range for peak exposures, Cmax",28.3 to 555 ng/mL
same,Tmax,"[2]; human, plasma, po, 5 mg, AZD6280 single oral dose 5 mg, individual subjects",60 min
same,Tmax,"[2]; human, plasma, po, 12 mg, AZD6280 single oral dose 12 mg, individual subject",54 min
same,Cmax,"[2]; human, plasma, po, 12 mg, AZD6280 single oral dose 12 mg, individual subject, read-out: C max",249 nM
same,Tmax,"[2]; human, plasma, po, 20 mg, AZD6280 single oral dose 20 mg, individual subject",96 min
same,Cmax,"[2]; human, plasma, po, 20 mg, AZD6280 single oral dose 20 mg, individual subject, read-out: C max",677 nM
same,Cmax,"[2]; human, plasma, po, 30 mg, AZD6280 single oral dose 30 mg, individual subjects, read-out: C max",729 nM
same,receptor occupancy up to which no cognitive or hypnotic side effects were observed,[3],up to 60%
same,activity in the battery of ligand binding assays,[4],only assays in which either compound was active were the melatonin Type 1 and Type 2 receptors
same,brain exposure,[5],good brain exposure
same,pEC50,human MT1 receptor,7.72
same,Emax,human MT1 receptor,90%
same,sedation scores in VAS alertness scale compared to placebo,"[6]; 1 h post-dose, dose ≥20 mg, ref AZ data on file",numerically higher sedation scores
same,correct answers on DSST,"[6]; 2 h after administration, dose ≥20 mg, ref AZ data on file",lower mean correct answers
same,relationship between dose and alertness or cognitive performance,"[6]; VAS alertness-sedation, Modified Wilson Sedation Scale, DSST, ref NCT00681317 and NCT00681915",no significant relationship
same,most common AEs: dizziness,[7]; [8],four of eight subjects
same,most common AEs: feeling drunk,[7]; [8],two out of eight subjects
same,receptor occupancy at the doses/exposure at which adverse events were reported,"[7]; AZD7325 5, 20 and 30 mg, AZD6280 20 mg and above",> 60%
same,high receptor occupancy reached without obvious sedative effects,[7]; PET studies,> 60%
same,doses at which AEs were reported,[7]; not at 5 and 12 mg dose,≥ 20 mg
